Broadly, the IC50 is the concentration that inhibits the measured activity by half. Low values mean higher potency, high ones lower potency.

T1 sequence (Q2M2I8 1-863 isoform Q2M2I8-2): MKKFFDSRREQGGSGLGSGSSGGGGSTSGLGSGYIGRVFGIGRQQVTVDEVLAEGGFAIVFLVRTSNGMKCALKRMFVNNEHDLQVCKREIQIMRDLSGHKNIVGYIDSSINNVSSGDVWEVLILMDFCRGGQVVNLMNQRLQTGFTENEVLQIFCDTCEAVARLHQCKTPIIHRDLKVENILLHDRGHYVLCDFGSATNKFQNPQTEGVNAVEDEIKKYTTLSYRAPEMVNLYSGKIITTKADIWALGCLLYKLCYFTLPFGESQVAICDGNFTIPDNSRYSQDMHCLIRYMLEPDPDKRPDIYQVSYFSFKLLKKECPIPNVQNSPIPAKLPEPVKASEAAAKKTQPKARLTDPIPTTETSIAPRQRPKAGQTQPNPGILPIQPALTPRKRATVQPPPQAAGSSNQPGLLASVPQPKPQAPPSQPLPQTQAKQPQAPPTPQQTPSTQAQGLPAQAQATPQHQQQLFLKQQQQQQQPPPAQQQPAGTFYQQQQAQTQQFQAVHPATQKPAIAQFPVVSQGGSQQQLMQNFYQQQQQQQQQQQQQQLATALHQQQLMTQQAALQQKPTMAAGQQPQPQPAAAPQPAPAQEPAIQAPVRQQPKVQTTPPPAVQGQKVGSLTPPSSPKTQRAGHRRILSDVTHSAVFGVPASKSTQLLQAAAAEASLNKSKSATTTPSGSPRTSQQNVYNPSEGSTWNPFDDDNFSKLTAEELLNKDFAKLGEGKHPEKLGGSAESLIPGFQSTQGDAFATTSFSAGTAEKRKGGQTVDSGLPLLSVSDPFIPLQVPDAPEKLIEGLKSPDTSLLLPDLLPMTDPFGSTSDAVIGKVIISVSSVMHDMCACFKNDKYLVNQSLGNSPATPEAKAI

The assay concerns the target T1, AAK1 (Homo sapiens, UniProt Q2M2I8).
T1 construct: NP_055726.2
The assay is described as follows: P81 filter plate assay. Format: biochemical. Particulars: full-length human AAK1, Mu2 substrate, 33P-ATP. Here is the method:
Compounds were serially diluted into a Labcyte LDV plate (Labcyte, cat#LP-0200) using a Mutiprobe (PerkinElmer) and Biomek FX (Beckman Coulter) so that the highest compound concentration was at 96 μM. Compounds were then pinged (75 nL per well) into a Greiner 384-well reaction plate (Greiner, #781076) using an ECHO 550 Liquid Handler (Labcyte). A total of 12 μl reaction buffer (IMAP buffer containing Tween and DTT, from Molecular Devices) was then added to each well of columns 1 and 13 for the negative controls and 12 μl of 2× AAK1 (0.2 nM full-length human protein, NCBI accession no. NP_055726.2) was added to the remaining wells. Enzyme was then pre-incubated with compound for 10 minutes at RT. Reactions were initiated upon Minitrak (PerkinElmer) addition of 12 μl substrate mix containing 2× Mu2 (0.2 μM, full length human protein), 2× cold ATP (2 μM), and 1.3 μCi of hot ^33P-ATP. […] proceeded for one hour at RT. Meanwhile, Millipore 384-well P81 filter plates (Millipore, catalog #MZPHNOW10) were placed on a plate washer (Zoom ZW, from Titertek) and pre-wet with 50 μl 1% phosphoric acid. Kinase reactions were then stopped upon addition of 24 μl of 2% phosphoric acid to each well and the Minitrak was then used to transfer 40 μl from each well into the pre-wet Millipore 384-well P81 filter plates. Reaction mixtures were incubated for 10 minutes at RT in the P81 plates, followed by washing five times with 100 μl/well of 1% phosphoric acid using the Zoom filter washer. The bottom of each filter plate was sealed followed by addition of 20 μl Microscint 40 to each well, sealing the top of the plates with Flashplate cover, and then waiting one hour until reading on the TopCount (PerkinElmer).
In the case of `CC(C)OC(=O)N1CCN(c2ccn3ncc(-c4cccn(C)c4=O)c3n2)CC1` [isopropyl 4-(3-(1-methyl-2-oxo-1,2-dihydropyridin-3-yl)pyrazolo[1,5-a]pyrimidin-5-yl)piperazine-1-carboxylate], the concentration for half-maximal inhibition (IC50) is ≤ 10 nM.

As for `COc1ccccc1-c1cnn2ccc(N3CCN(C(=O)OC(C)C)CC3)nc12` [isopropyl 4-(3-(2-methoxyphenyl)pyrazolo[1,5-a]pyrimidin-5-yl)piperazine-1-carboxylate], the IC50 is ≤ 10 nM.

Take `COc1ncccc1-c1cnn2ccc(N3CCN(C(=O)OCCOC(C)(C)C)CC3)nc12` [2-(tert-butoxy)ethyl 4-(3-(2-methoxypyridin-3-yl)pyrazolo[1,5-a]pyrimidin-5-yl)piperazine-1-carboxylate]: the concentration for half-maximal inhibition (IC50) was ≤ 10 nM.

With `COc1ncccc1-c1cnn2ccc(N3C[C@H]4C[C@@H](C3)N4C(=O)OC(C)C)nc12` [(1R,5S)-isopropyl 3-(3-(2-methoxypyridin-3-yl)pyrazolo[1,5-a]pyrimidin-5-yl)-3,6-diazabicyclo[3.1.1]heptane-6-carboxylate], the half-inhibitory concentration (IC50) is ≤ 100 nM.

Regarding `COC(=O)c1ccc(-c2cnn3ccc(N4CCN(C(=O)OC(C)C)CC4)nc23)cc1` [isopropyl 4-(3-(4-(methoxycarbonyl)phenyl)pyrazolo[1,5-a]pyrimidin-5-yl)piperazine-1-carboxylate], the half-inhibitory concentration (IC50) was ≤ 100 nM.

As to `CCOC(=O)N1CCN(c2ccn3ncc(-c4ccc(OC)nc4OC)c3n2)CC1` [ethyl 4-(3-(2,6-dimethoxypyridin-3-yl)pyrazolo[1,5-a]pyrimidin-5-yl)piperazine-1-carboxylate], the IC50 was ≤ 10 nM.

Turning to `COCCOc1ncccc1-c1cnn2ccc(N3CCN(C(=O)OC(C)C)CC3)nc12` [isopropyl 4-(3-(2-(2-methoxyethoxy)pyridin-3-yl)pyrazolo[1,5-a]pyrimidin-5-yl)piperazine-1-carboxylate], the IC50 was ≤ 100 nM.

Regarding `CC(C)OC(=O)N1CCN(c2ccn3ncc(-c4cccnc4N)c3n2)CC1` [isopropyl 4-(3-(2-aminopyridin-3-yl)pyrazolo[1,5-a]pyrimidin-5-yl)piperazine-1-carboxylate], the IC50 was ≤ 100 nM.

`Cc1ncccc1-c1cnn2ccc(N3CCN(C(=O)OC(C)C)CC3)nc12` [isopropyl 4-(3-(2-methylpyridin-3-yl)pyrazolo[1,5-a]pyrimidin-5-yl)piperazine-1-carboxylate]: the IC50 is ≤ 100 nM.

Turning to `CSc1ncccc1-c1cnn2ccc(N3CCN(C(=O)OC(C)C)CC3)nc12` [isopropyl 4-(3-(2-(methylthio)pyridin-3-yl)pyrazolo[1,5-a]pyrimidin-5-yl)piperazine-1-carboxylate], the concentration for half-maximal inhibition (IC50) is ≤ 100 nM.

`COc1ncc(F)cc1-c1cnn2ccc(N(C)CCCN(C)C(=O)OC(C)C)nc12` [isopropyl (3-((3-(5-fluoro-2-methoxypyridin-3-yl)pyrazolo[1,5-a]pyrimidin-5-yl)(methyl)amino)propyl)(methyl)carbamate]: the IC50 is ≤ 10 nM.

Regarding `CC(C)OC(=O)N1CCN(c2ccn3ncc(-c4cncc(F)c4)c3n2)CC1` [isopropyl 4-(3-(5-fluoropyridin-3-yl)pyrazolo[1,5-a]pyrimidin-5-yl)piperazine-1-carboxylate], the 50% inhibitory concentration (IC50) is ≤ 10 nM.

Turning to `COC/C=C/c1cnn2ccc(N3CCN(C(=O)OC(C)C)CC3)nc12` [(E)-isopropyl 4-(3-(3-methoxyprop-1-en-1-yl)pyrazolo[1,5-a]pyrimidin-5-yl)piperazine-1-carboxylate], the IC50 was ≤ 1000 nM.

Take `COc1ncccc1-c1cnn2ccc(N3CCN(CCC(F)(F)F)CC3)nc12` [3-(2-methoxypyridin-3-yl)-5-(4-(3,3,3-trifluoropropyl)piperazin-1-yl)pyrazolo[1,5-a]pyrimidine]: the half-inhibitory concentration (IC50) was ≤ 1000 nM.

Regarding `COc1nc(C)ccc1-c1cnn2ccc(N3CCN(CC(F)(F)F)CC3)nc12` [3-(2-methoxy-6-methylpyridin-3-yl)-5-(4-(2,2,2-trifluoroethyl)piperazin-1-yl)pyrazolo[1,5-a]pyrimidine], the IC50 is ≤ 100 nM.

`COc1ncccc1-c1cnn2ccc(N(C)CCN(C)C(=O)[C@@H](N)CC(C)C)nc12` [(S)-2-amino-N-(2-((3-(2-methoxypyridin-3-yl)pyrazolo[1,5-a]pyrimidin-5-yl)(methyl)amino)ethyl)-N,4-dimethylpentanamide]: the concentration for half-maximal inhibition (IC50) is ≤ 10 nM.

As for `COc1ncccc1-c1cnn2ccc(N3CCN(C(=O)C(C)(C)N)CC3)nc12` [2-amino-1-(4-(3-(2-methoxypyridin-3-yl)pyrazolo[1,5-a]pyrimidin-5-yl)piperazin-1-yl)-2-methylpropan-1-one], the IC50 was ≤ 100 nM.

Consider `COc1nc(C)ccc1-c1cnn2ccc(NCCOC(C)(C)C)nc12` [N-(2-(tert-butoxy)ethyl)-3-(2-methoxy-6-methylpyridin-3-yl)pyrazolo[1,5-a]pyrimidin-5-amine], for which the IC50 was ≤ 100 nM.

Turning to `CC(C)OC(=O)N(C)[C@H]1CCN(c2ccn3ncc(-c4ccccn4)c3n2)C1` [(S)-isopropyl methyl(1-(3-(pyridin-2-yl)pyrazolo[1,5-a]pyrimidin-5-yl)pyrrolidin-3-yl)carbamate], the half-inhibitory concentration (IC50) was ≤ 1000 nM.

Regarding `COc1ncccc1-c1cnn2ccc(N3CCN(C[C@@H](N)CC(C)C)CC3)nc12` [(S)-1-(4-(3-(2-methoxypyridin-3-yl)pyrazolo[1,5-a]pyrimidin-5-yl)piperazin-1-yl)-4-methylpentan-2-amine], the IC50 is ≤ 100 nM.

As to `CN(C(=O)OC(C)(C)C)[C@H]1CCN(c2ccn3ncc(-c4ccccn4)c3n2)C1` [(S)-tert-butyl methyl(1-(3-(pyridin-2-yl)pyrazolo[1,5-a]pyrimidin-5-yl)pyrrolidin-3-yl)carbamate], the half-inhibitory concentration (IC50) was ≤ 1000 nM.

For `CC(C)OC(=O)N1CCN(c2ccn3ncc(-c4cccn5ccnc45)c3n2)CC1` [isopropyl 4-(3-(imidazo[1,2-a]pyridin-8-yl)pyrazolo[1,5-a]pyrimidin-5-yl)piperazine-1-carboxylate], the half-maximal inhibitory concentration (IC50) is ≤ 100 nM.

As to `CCc1ccccc1-c1cnn2ccc(NC[C@@H]3CCCN3C(=O)OC(C)(C)C)nc12` [(S)-tert-butyl 2-(((3-(2-ethylphenyl)pyrazolo[1,5-a]pyrimidin-5-yl)amino)methyl)pyrrolidine-1-carboxylate], the half-inhibitory concentration (IC50) was ≤ 10 nM.

For `CC(C)C[C@H](N)C(=O)N1CCN(c2ccn3ncc(Br)c3n2)CC1` [(S)-2-amino-1-(4-(3-bromopyrazolo[1,5-a]pyrimidin-5-yl)piperazin-1-yl)-4-methylpentan-1-one], the concentration for half-maximal inhibition (IC50) was ≤ 100 nM.

Regarding `COc1ncccc1-c1cnn2ccc(N3C[C@H]4C[C@@H](C3)N4C(=O)OC(C)(C)C)nc12` [(1R,5S)-tert-butyl 3-(3-(2-methoxypyridin-3-yl)pyrazolo[1,5-a]pyrimidin-5-yl)-3,6-diazabicyclo[3.1.1]heptane-6-carboxylate], the IC50 is ≤ 100 nM.

`CC(C)OC(=O)N1CCN(c2ccn3ncc(-c4cccc5[nH]cnc45)c3n2)CC1` [isopropyl 4-(3-(1H-benzo[d]imidazol-4-yl)pyrazolo[1,5-a]pyrimidin-5-yl)piperazine-1-carboxylate]: the IC50 was ≤ 100 nM.

On to `COc1nc(C)ccc1-c1cnn2ccc(NCCCOC(C)(C)C)nc12` [N-(3-(tert-butoxy)propyl)-3-(2-methoxy-6-methylpyridin-3-yl)pyrazolo[1,5-a]pyrimidin-5-amine], for which the half-maximal inhibitory concentration (IC50) is ≤ 10 nM.

Turning to `COc1nc(C)ccc1-c1cnn2ccc(N(C)CCCOC(C)(C)C)nc12` [N-(3-(tert-butoxy)propyl)-3-(2-methoxy-6-methylpyridin-3-yl)-N-methylpyrazolo[1,5-a]pyrimidin-5-amine], the half-maximal inhibitory concentration (IC50) is ≤ 100 nM.

Consider `COc1ccc(-c2cnn3ccc(N4CC[C@H](N(C)C(=O)OC(C)C)C4)nc23)c(OC)n1` [(S)-isopropyl (1-(3-(2,6-dimethoxypyridin-3-yl)pyrazolo[1,5-a]pyrimidin-5-yl)pyrrolidin-3-yl)(methyl)carbamate], for which the half-inhibitory concentration (IC50) was ≤ 100 nM.

As to `COc1ncncc1-c1cnn2ccc(N3CCN(C(=O)OC(C)C)CC3)nc12` [isopropyl 4-(3-(4-methoxypyrimidin-5-yl)pyrazolo[1,5-a]pyrimidin-5-yl)piperazine-1-carboxylate], the IC50 was ≤ 100 nM.

In the case of `COC(=O)COC(=O)N1CCN(c2ccn3ncc(-c4cccnc4OC)c3n2)CC1` [2-methoxy-2-oxoethyl 4-(3-(2-methoxypyridin-3-yl)pyrazolo[1,5-a]pyrimidin-5-yl)piperazine-1-carboxylate], the IC50 was ≤ 100 nM.

As to `CC(C)OC(=O)N1CCN(c2ccn3ncc(I)c3n2)CC1` [isopropyl 4-(3-iodopyrazolo[1,5-a]pyrimidin-5-yl)piperazine-1-carboxylate], the IC50 was ≤ 100 nM.

Take `COc1ncc(C)cc1-c1cnn2ccc(N3CC[C@H](N(C)C(=O)OC(C)C)C3)nc12` [(S)-isopropyl (1-(3-(2-methoxy-5-methylpyridin-3-yl)pyrazolo[1,5-a]pyrimidin-5-yl)pyrrolidin-3-yl)(methyl)carbamate]: the IC50 is ≤ 10 nM.

`CC(C)(C)OC(=O)N1CCC[C@H]1CNc1ccn2ncc(C(F)(F)F)c2n1` [(S)-tert-butyl 2-(((3-(trifluoromethyl)pyrazolo[1,5-a]pyrimidin-5-yl)amino)methyl)pyrrolidine-1-carboxylate]: the concentration for half-maximal inhibition (IC50) is ≤ 10 nM.

The record behind these values is US9403832B2, “Pyrazolo[1,5-a]pyrimidine-based compounds, compositions comprising them, and methods of their use” (Lexicon Pharmaceuticals, Inc., priority 2012, dated 2016).
